As usually defined, the IC50 is the midpoint of a concentration-inhibition curve. A lower IC50 goes with inhibition by little substance.

Structures are written as SMILES.

In this test the target is T1, BACE2 (Homo sapiens, UniProt Q9Y5Z0).
T1 construct: BACE2 enzyme ectodomain (derived from plasmid “pET17b-T7-hu proBACE2”) was prepared as described in Ostermann et al; T7 tag (N); made in house
T1 sequence (Q9Y5Z0 21-473 limits assumed): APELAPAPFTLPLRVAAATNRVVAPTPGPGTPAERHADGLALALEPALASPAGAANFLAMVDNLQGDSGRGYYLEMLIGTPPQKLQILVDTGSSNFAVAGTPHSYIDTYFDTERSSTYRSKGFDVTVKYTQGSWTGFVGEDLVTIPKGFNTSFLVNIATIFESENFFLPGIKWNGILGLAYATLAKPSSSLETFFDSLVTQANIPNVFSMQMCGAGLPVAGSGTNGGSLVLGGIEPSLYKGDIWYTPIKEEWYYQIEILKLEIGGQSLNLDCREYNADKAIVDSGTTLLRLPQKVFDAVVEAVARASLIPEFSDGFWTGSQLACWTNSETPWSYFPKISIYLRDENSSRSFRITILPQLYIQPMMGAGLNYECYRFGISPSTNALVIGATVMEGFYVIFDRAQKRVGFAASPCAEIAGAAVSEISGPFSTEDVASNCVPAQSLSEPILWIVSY
Description: Fluorescent-peptide cleavage assay for BACE2 inhibition. As to conditions: BACE2 enzyme ectodomain, fluorescent peptide WS EVNLD AEFRC-MR121, assay buffer pH 4.5, room temperature. Format: biochemical. The protocol:
Fluorescent-Peptide Cleavage Assay for BACE2 Inhibition
The pro-enzyme was stored at 4° C. at a concentration of 70 μg/ml.
A fluorescent peptide with the amino acid sequence WS EVNLD AEFRC-MR121 was synthesised and a stock solution of 1.5 mM in DMSO prepared and stored at −20° C. MR121 is a fluorophore with an excitation wavelength of 630 nm and emission wavelength of 695 nm. The MR121 fluorescence is quenched by the N-terminal tryptophan until the peptide is cleaved by BACE2.
Assays were all made in a Corning 384-well black polystyrene non-binding surface microtitre plate with clear flat bottom and using a Plate:Vision (Perkin Elmer) fluorescence reader. To perform the assay an 80 nM solution of BACE2 was prepared in assay buffer (assay buffer is 100 mM Na-acetate; 20 mM EDTA; 0.05% BSA; pH 4.5) and incubated at room temperature for 1 hour to activate the enzyme. 39 μl of the activated BACE2 was placed in each assay well, followed by 1 μl compound to be tested at an appropriate concentration in 100% DMSO. The plate was then mixed and incubated for 10 minutes at room temperature.
The assay readout is the rate of change of fluorescence intensity giving a relative measure of BACE2 activity. Small values correspond to high inhibition and larger values to low inhibition. […] IC50 values were determined using these assay values generated for a range of inhibitor concentrations and the curve fitting software XLfit (IDBS) using the Sigmoidal Dose-Response Model.
Consider `Cc1ccc(C(=O)Nc2cccc([C@]3(C)CC(=O)N(C)C(N)=N3)c2)s1` [Example 1, 5-Methyl-thiophene-2-carboxylic acid [3-((S)-2-amino-1,4-dimethyl-6-oxo-1,4,5,6-tetrahydro-pyrimidin-4-yl)-phenyl]-amide], for which the IC50 is 13 nM.

`CN1C(=O)C[C@@](C)(c2cccc(NC(=O)c3ccc(Cl)s3)c2)N=C1N` [Example 2, 5-Chloro-thiophene-2-carboxylic acid [3-((S)-2-amino-1,4-dimethyl-6-oxo-1,4,5,6-tetrahydro-pyrimidin-4-yl)-phenyl]amide] came in with an IC50 of 14 nM.

`Cc1cc(C(=O)Nc2cccc([C@]3(C)CC(=O)N(C)C(N)=N3)c2)c(C)s1` [Example 3, 2,5-Dimethyl-thiophene-3-carboxylic acid [3-((S)-2-amino-1,4-dimethyl-6-oxo-1,4,5,6-tetrahydro-pyrimidin-4-yl)-phenyl]amide] had an IC50 of 86 nM. Then `Cc1nc(C(=O)Nc2cccc([C@]3(C)CC(=O)N(C)C(N)=N3)c2)c(C)o1` [Example 4, 2,5-Dimethyl-oxazole-4-carboxylic acid [3-((S)-2-amino-1,4-dimethyl-6-oxo-1,4,5,6-tetrahydro-pyrimidin-4-yl)-phenyl]amide], with 98 nM; and `Cc1nc(C)c(C(=O)Nc2cccc([C@]3(C)CC(=O)N(C)C(N)=N3)c2)o1` [Example 5, 2,4-Dimethyl-oxazole-5-carboxylic acid [3-((S)-2-amino-1,4-dimethyl-6-oxo-1,4,5,6-tetrahydro-pyrimidin-4-yl)-phenyl]amide], with 121 nM. Compound `Cc1cc(C(=O)Nc2cccc([C@]3(C)CC(=O)N(C)C(N)=N3)c2)on1` [Example 6, 3-Methyl-isoxazole-5-carboxylic acid [3-((S)-2-amino-1,4-dimethyl-6-oxo-1,4,5,6-tetrahydro-pyrimidin-4-yl)-phenyl]amide] had a concentration for half-maximal inhibition (IC50) of 307 nM. In turn, `Cc1cc(C(=O)Nc2cccc([C@]3(C)CC(=O)N(C)C(N)=N3)c2)nn1C` [Example 7, 1,5-Dimethyl-1H-pyrazole-3-carboxylic acid [3-((S)-2-amino-1,4-dimethyl-6-oxo-1,4,5,6-tetrahydro-pyrimidin-4-yl)-phenyl]amide] had a concentration for half-maximal inhibition (IC50) of 1010 nM. The result for `Cc1cc(C(=O)Nc2cccc([C@]3(C)CC(=O)N(C)C(N)=N3)c2)n(C)n1` [Example 8, 2,5-Dimethyl-2H-pyrazole-3-carboxylic acid [3-((S)-2-amino-1,4-dimethyl-6-oxo-1,4,5,6-tetrahydro-pyrimidin-4-yl)-phenyl]amide] reads 126 nM. The result for `CN1C(=O)C[C@@](C)(c2cccc(NC(=O)c3cn4ccccc4n3)c2)N=C1N` [Example 9, Imidazo[1,2-a]pyridine-2-carboxylic acid [3-((S)-2-amino-1,4-dimethyl-6-oxo-1,4,5,6-tetrahydro-pyrimidin-4-yl)-phenyl]amide] reads 110 nM; that for `CN1C(=O)C[C@@](C)(c2cccc(NC(=O)c3ccc(Cl)cn3)c2)N=C1N` [Example 10, 5-Chloro-pyridine-2-carboxylic acid [3-((S)-2-amino-1,4-dimethyl-6-oxo-1,4,5,6-tetrahydro-pyrimidin-4-yl)-phenyl]amide], 7 nM; that for `CN1C(=O)C[C@@](C)(c2cccc(NC(=O)c3ccc(C(F)(F)F)cn3)c2)N=C1N` [Example 11, 5-Trifluoromethyl-pyridine-2-carboxylic acid [3-((S)-2-amino-1,4-dimethyl-6-oxo-1,4,5,6-tetrahydro-pyrimidin-4-yl)-phenyl]amide], 28 nM. Take `Cc1ccc(C(=O)Nc2cccc([C@]3(C)CC(=O)N(C)C(N)=N3)c2)nc1` [Example 12, 5-Methyl-pyridine-2-carboxylic acid [3-((S)-2-amino-1,4-dimethyl-6-oxo-1,4,5,6-tetrahydro-pyrimidin-4-yl)-phenyl]amide]: the midpoint of inhibition, the IC50, lay at 37 nM.
